Laboratory results as given in patent publication US11882828B2, “Mosquito vector control compositions, methods and products utilizing same” (priority 2015, dated 2024).

Tests used:
[1] = tested on: Aedes aegypti (Yellow fever mosquito); experiment: whole plant or invertebrate; details: Aedes aegypti
Method: […] Once the deposits were dry, five non-blood fed adult female Aedes aegypti (between two to five days old) were added to each well, and sustained with a 10% sucrose solution in a cotton wool plug. Assessment of the knockdown after 1 hour, and mortality after 48 hours was carried out.
(§1) In case of multiple tests, the mean value is reported.

[2] = tested on: Anopheles stephensi (Indian malaria mosquito); experiment: whole plant or invertebrate; details: Anopheles stephensi
Method: […] Once the deposits were dry, five non-blood fed adult female Anopheles stephensi (between two to five days old) were added to each well, and sustained with a 10% sucrose solution in a cotton wool plug. Assessment of the knockdown after 1 hour, and mortality after 48 hours was carried out.
as §1

Aedes aegypti [3] = experiment: whole plant or invertebrate; details: Aedes aegypti, 48 h
Summary of the method: (§2)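 Non-blood-fed adult females (2–5 days old), ten per well, were placed on dried ethanol deposits of the test compound at a defined concentration and fed 10% sucrose. Mortality was scored at 48 hours as the mean of two replicates.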

Anopheles stephensi [4] = experiment: whole plant or invertebrate; details: Anopheles stephensi, 48 h
Summary of the method: as §2

Ae. Aegypti New Orleans = experiment: Example B4: cross resistance study, 6-well plate; assay type: in vivo
Method: (§3) In each study, a set of plates were infested with a known insecticide susceptible strain of mosquitoes from the same genera as the resistant strains.
(§4) Assessment of the knockdown after 60 minutes and mortality after 24 hours was carried out. Each treatment was replicated a minimum of four times, with the mean knockdown or mortality recorded.
(§5) A comparison of the knockdown and mortality of the resistant strain of mosquitoes was made to that of the susceptible to identify evidence of cross resistance.

Ae. aegypti Caymon = experiment: Example B4: cross resistance study, 6-well plate; assay type: in vivo
Method: as §3, §4, §5

An. Arabiensis Moz sus = experiment: Example B4: cross resistance study, 6-well plate; assay type: in vivo
Method: as §3, §4, §5

An. Gambiae Kisumu rdl = experiment: Example B4: cross resistance study, 6-well plate; assay type: in vivo
Method: as §3, §4, §5

An. Gambiae Kisumu sus = experiment: Example B4: cross resistance study, 6-well plate; assay type: in vivo
Method: as §3, §4, §5

An. Gambiae Tiassalé = experiment: Example B4: cross resistance study, 6-well plate; assay type: in vivo
Method: as §3, §4, §5

An. stephensi = experiment: Example B4: cross resistance study, 6-well plate; assay type: in vivo
Method: as §3, §4, §5

Aedes aegypti [5] = experiment: Example B7: evaluation of insecticide impregnated polymer surfaces; assay type: in vivo; details: AI content 2 wt %, polymer 4 to 6 weeks old; for mortality: 24 hours after exposure; for knock-down: after one hour
Text: (§6) Preparation of polymeric sheets: Certain methoxyacrylate were Impregnated into three polymers: LDPE (low density polyethylene), HDPE (high density polyethylene) and PP (polypropylene) in different concentrations by mixing the respective polymer with a compound at high temperatures and the resultant polymeric material were then mould into thin discs or plaques.
(§7) Twenty four hours prior to the relevant assessment intervals, three to five day old non-blood fed adult mosquitoes were taken from the culture and lightly anaesthetised with carbon dioxide. Ten females were selected and placed in a 250 ml plastic cup, retained with a net lid, provided with a 10% sucrose solution soaked in a cotton wool bung and held under culturing environmental conditions.
(§8) After twenty four hours, impregnated polymer sheets (measuring about 150 mm in diameter and about 0.1 mm in thickness) were removed from storage and wrapped around the glazed side of an 11 cm ceramic tile and held in place with an elastic band. A cup of the pre-selected mosquitoes were again lightly anaesthetised with carbon dioxide and transferred from the holding cup to the base of a 9 cm plastic Petri dish. The relevant impregnated polymer sheet was placed over the Petri dish and held in place with an elastic band. Once the mosquitoes had recovered from the anaesthetic, ca. 1 minute, the impregnated polymer sheet was placed on a holding rack, such that treated side was at an angle of […] to the horizontal.
(§9) After one hour an assessment of mosquito knockdown was made. A mosquito was said to be knocked down if it was unable to right itself once it had fallen over. The mosquitoes were lightly anaesthetised again, and removed from the Petri dish exposure chamber and returned to the holding cups. The mosquitoes were supplied with a 10% sucrose solution soaked in a cotton wool bung and held under culturing environmental conditions. An assessment of mortality was made 24 hours after exposure. A mosquito was said to be dead if it is unable to right itself once it had fallen over.

Anopheles stephensi [6] = experiment: as above; assay type: in vivo; details: AI content 2 wt %; for mortality: 24 hours after exposure; for knock-down: after one hour
Text: as §6, §7, §8, §9

SMILES: CO/C=C(/C(=O)OC)c1ccccc1Oc1nc(C(C)(C)C)ns1 [Compound 7, Methyl (E)-2-[2-[(3-tert-butyl-1,2,4-thiadiazol-5-yl)oxy]phenyl]-3-methoxy-prop-2-enoate]
- pest or weed control at 20 ppm ([1]; 1 h, read-out: Knockdown): 100%
- mortality at 20 ppm ([1]; 48 h): 100%
- pest or weed control at 20 ppm ([2]; 1 h, read-out: Knockdown): 67%
- mortality at 20 ppm ([2]; 48 h): 100%
- mortality at 5 ppm (Aedes aegypti [3]): 78%
- mortality at 5 ppm (Anopheles stephensi [4]): 95%
- Knockdown (Ae. Aegypti New Orleans; 2.50 ppm, after 60 minutes, New Orleans): 38%
- mortality at 2.5 ppm (Ae. Aegypti New Orleans; Aedes aegypti, 24 h): 100%
- Knockdown (Ae. aegypti Caymon; 2.50 ppm, after 60 minutes, Caymon): 52%
- mortality at 2.5 ppm (Ae. aegypti Caymon; Aedes aegypti, 24 h): 28%
- Knockdown (An. Arabiensis Moz sus; 2.50 ppm, after 60 minutes, Moz sus): 95%
- mortality at 2.5 ppm (An. Arabiensis Moz sus; Anopheles arabiensis, 24 h): 100%
- Knockdown (An. Gambiae Kisumu rdl; 2.50 ppm, after 60 minutes, Kisumu rdl): 90%
- mortality at 2.5 ppm (An. Gambiae Kisumu rdl; Anopheles gambiae, 24 h): 100%
- Knockdown (An. Gambiae Kisumu sus; 2.50 ppm, after 60 minutes, Kisumu sus): 100%
- mortality at 2.5 ppm (An. Gambiae Kisumu sus; Anopheles gambiae, 24 h): 100%
- Knockdown (An. Gambiae Tiassalé; 2.50 ppm, after 60 minutes, Tiassalé): 90%
- mortality at 2.5 ppm (An. Gambiae Tiassalé; Anopheles gambiae, 24 h): 85%
- Knockdown (An. stephensi; 2.50 ppm, after 60 minutes, An. stephensi): 40%
- mortality at 2.5 ppm (An. stephensi; Anopheles stephensi, 24 h): 100%
- mortality (Aedes aegypti [5]; HDPE): 47%
- knock-down (Aedes aegypti [5]; HDPE): 83%
- mortality (Aedes aegypti [5]; LDPE): 97%
- knock-down (Aedes aegypti [5]; LDPE): 100%
- mortality (Aedes aegypti [5]; PP): 23%
- knock-down (Aedes aegypti [5]; PP): 67%
- mortality (Anopheles stephensi [6]; HDPE, polymer 4 to 6 weeks old): 87%
- knock-down (Anopheles stephensi [6]; HDPE, polymer 4 to 6 weeks old): 93%
- mortality (Anopheles stephensi [6]; HDPE, polymer 6 to 8 weeks old): 87%
- knock-down (Anopheles stephensi [6]; HDPE, polymer 6 to 8 weeks old): 100%
- mortality (Anopheles stephensi [6]; LDPE, polymer 4 to 6 weeks old): 97%
- knock-down (Anopheles stephensi [6]; LDPE, polymer 4 to 6 weeks old): 100%
- mortality (Anopheles stephensi [6]; LDPE, polymer 6 to 8 weeks old): 100%
- knock-down (Anopheles stephensi [6]; LDPE, polymer 6 to 8 weeks old): 87%
- mortality (Anopheles stephensi [6]; PP, polymer 4 to 6 weeks old): 87%
- knock-down (Anopheles stephensi [6]; PP, polymer 4 to 6 weeks old): 93%
- mortality (Anopheles stephensi [6]; PP, polymer 6 to 8 weeks old): 77%
- knock-down (Anopheles stephensi [6]; PP, polymer 6 to 8 weeks old): 100%
